According to patent US8822464B2, “N-aryl-piperazine derivatives and their use as positive allosteric modulators of mGluR5 receptors” (Boehringer Ingelheim International GmbH, priority 2011, dated 2014):
Values belong to the molecule of their own block, whether it stands above or below them.

Target: T1, human recombinant mGluR5 (Homo sapiens, UniProt P41594)
T1 construct: expressed in transfected cells; host or cells: HEK 293 cell line; cultured with tetracycline, hygromycin and geneticin; tetracycline withdrawn 3-7 days before the assay
Assay: positive modulation of mGluR5, calcium based FLIPR assay in HEK 293 cells
Conditions: HEK 293 cell line expressing human recombinant mGluR5; peak height of Ca release fluorescence signal after glutamate at approximately 5% basal stimulation; nonlinear regression
Outline: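 HEK 293 cells expressing human mGluR5, tetracycline-free 3-7 days, Calcium-4 dye-loaded in Ringer solution pH 7.4; 1% DMSO final. Compound added 5 min before glutamate at ~5% of maximal effect; peak Ca2+ fluorescence normalized to basal glutamate (100%) and 10 μM CDPPB (200%); EC50 by nonlinear regression.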

T1 sequence (P41594 21-1212): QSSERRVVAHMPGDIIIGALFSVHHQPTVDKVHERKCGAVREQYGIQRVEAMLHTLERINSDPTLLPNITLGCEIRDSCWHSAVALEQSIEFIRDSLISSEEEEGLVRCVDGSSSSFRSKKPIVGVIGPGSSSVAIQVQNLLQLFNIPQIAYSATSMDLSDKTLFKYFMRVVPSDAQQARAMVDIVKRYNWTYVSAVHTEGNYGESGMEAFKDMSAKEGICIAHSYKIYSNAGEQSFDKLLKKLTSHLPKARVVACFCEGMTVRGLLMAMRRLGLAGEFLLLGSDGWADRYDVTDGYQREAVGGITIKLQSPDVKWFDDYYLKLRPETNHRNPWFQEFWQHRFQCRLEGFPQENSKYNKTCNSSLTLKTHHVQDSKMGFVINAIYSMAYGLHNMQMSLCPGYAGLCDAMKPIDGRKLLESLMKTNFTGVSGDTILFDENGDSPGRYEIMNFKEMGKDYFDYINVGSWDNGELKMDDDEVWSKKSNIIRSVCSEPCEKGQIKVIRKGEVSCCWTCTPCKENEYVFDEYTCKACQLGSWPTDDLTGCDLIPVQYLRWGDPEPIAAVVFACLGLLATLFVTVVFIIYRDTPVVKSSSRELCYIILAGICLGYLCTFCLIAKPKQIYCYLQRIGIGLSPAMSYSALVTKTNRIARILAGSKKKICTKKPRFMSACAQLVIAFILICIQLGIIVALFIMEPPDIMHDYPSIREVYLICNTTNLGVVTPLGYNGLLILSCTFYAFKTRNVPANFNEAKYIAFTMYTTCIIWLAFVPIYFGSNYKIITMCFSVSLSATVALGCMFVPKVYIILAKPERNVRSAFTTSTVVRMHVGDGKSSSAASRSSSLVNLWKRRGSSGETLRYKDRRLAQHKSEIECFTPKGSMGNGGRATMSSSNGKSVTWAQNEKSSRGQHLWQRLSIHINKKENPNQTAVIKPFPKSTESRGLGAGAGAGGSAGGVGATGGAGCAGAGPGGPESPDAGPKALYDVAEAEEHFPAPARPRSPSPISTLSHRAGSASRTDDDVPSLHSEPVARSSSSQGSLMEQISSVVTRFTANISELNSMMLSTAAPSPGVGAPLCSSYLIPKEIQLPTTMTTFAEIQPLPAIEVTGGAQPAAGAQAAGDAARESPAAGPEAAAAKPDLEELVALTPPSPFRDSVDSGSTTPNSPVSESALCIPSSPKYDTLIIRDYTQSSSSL

SMILES: CCc1cc(-c2ccc(C)c(C)c2)nn1CC(=O)N1CCN(c2ncccn2)CC1 [Example 7.01.87]
EC50: 0.069 µM

SMILES: CCc1cccc(-c2cc(CC)n(CC(=O)N3CCN(c4ccccn4)CC3)n2)c1 [Example 7.01.128]
EC50: 0.204 µM

SMILES: Cc1cnc(-c2cc(-c3ccccc3)nn2CC(=O)N2CCN(c3ncccn3)CC2)cc1C [Example 7.01.134]
EC50: 0.865 µM

SMILES: N#Cc1ccccc1N1CCN(C(=O)Cn2nc(-c3ccccc3)cc2-c2ccccc2)CC1 [Example 7.01.10]
EC50: 0.75 µM

SMILES: COc1ccc(-c2cc(C(C)C)n(CC(=O)N3CCN(c4cc(C)ccn4)CC3)n2)cc1 [Example 7.01.21]
EC50: 0.111 µM

SMILES: Cc1cc(-c2cc(C)n(CC(=O)N3CCN(c4cccnn4)CC3)n2)ccc1F [Example 7.02.24]
EC50: 0.34 µM

SMILES: COc1ccc(-c2cc(C(C)C)n(CC(=O)N3CCN(c4ccccn4)CC3)n2)cc1C [Example 7.01.56]
EC50: 0.393 µM

Molecules with a lower EC50, results first:

EC50: 0.06 µM
SMILES: Cc1cc(-c2cc(C3CCCCC3)n(CC(=O)N3CCN(c4ncccn4)CC3)n2)ccc1F [Example 7.01.34]

EC50: 0.033 µM
SMILES: CCCc1cc(-c2ccc(F)c(C)c2)nn1CC(=O)N1CCN(c2ncc(OC)cn2)CC1 [Example 7.01.82]

EC50: 0.028 µM
SMILES: Cc1cc(-c2cc(CC(C)C)n(CC(=O)N3CCN(c4ccccn4)CC3)n2)ccc1F [Example 7.01.117]

EC50: 0.022 µM
SMILES: COc1cc(N2CCN(C(=O)Cn3nc(-c4ccc(F)cc4)cc3-c3ccc(F)cc3)CC2)ncn1 [Example 7.01.14]
